Results as given in patent US4139538A, “Oxazolidinones as therapeutic agents” (priority 1975, dated 1979).

Key:
in vivo = conditions: mouse, po
[1] = maximum electric shock test (MES), protection against tonic extensor cramp; format: in vivo, mice
[2] = minimum pentetrazole shock test (min PS), protection against clonic cramp; format: in vivo, mice; conditions: Mus musculus, po, 1 h, read-out: Anticonvulsive activity Min PS ED50;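 further: albino NMRI mice, oral dosing, clonic seizures provoked 60 min later by subcutaneous pentetrazole 70 mg/kg, ED50 is the dose protecting half of animals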
[3] = paralysis: loss of the postural and balancing reflexes (lying down); format: in vivo, mice; conditions: for ED50: Mus musculus, po, read-out: Paralysis ED50; for effectiveness in relaxing the muscle system compared with known hypnotics and tranquillizers: versus e.g. chlorzoxazone and meprobamate
[4] = prolongation of sodium hexobarbitone narcosis; format: in vivo, mice; conditions: for ED (200%): Mus musculus, po, 1 h, mice, sodium hexobarbitone 70 mg/kg i.v., 60 minutes after p.o. administration, extension of the narcosis period to 200%, read-out: Prolongation of narcosis ED200; for effectiveness in prolonging sleep compared with known hypnotics and tranquillizers: versus e.g. chlorzoxazone and meprobamate
[5] = administration of a tablet to a human suffering from motor restlessness, with electroencephalogram; format: in vivo; conditions: 50 mg
Protocol: A tablet produced in accordance with Example 75 consisting of 50 mg. of the active compound according to Example 43 and the equivalent amount of the other ingredients was administered to a human suffering from motor restlessness.

[6] = Mus musculus, po, 1 h, read-out: Anticonvulsive activity MES ED50
[7] = Mus musculus, po, 1 h; read-out: Anticonvulsive activity MES ED50
[8] = mice, 70 mg/kg pentetrazole s.c., 60 minutes after p.o. administration, protection in 50% of the animals
[9] = mice, p.o., lying down in 50% of the animals
[10] = MES and min PS test models; versus trimethadione and dipropyl acetate

| SMILES | LD50 at 168 h (in vivo) | ED50 [1, 6] | ED50 [2] | ED50 [3] | ED (200%) [4] | ED50 [1, 7] | ED50 [2, 8] | ED50 [3, 9] | anticonvulsive effect compared with conventional antiepileptics [1, 10] | effectiveness in prolonging sleep compared with known hypnotics and tranquillizers [4] | effectiveness in relaxing the muscle system compared with known hypnotics and tranquillizers [3] | electroencephalogram findings [5] | indications of a shallow sleep phase in the electroencephalogram ([5]; 5 hours after administration) | effect reported by the patient ([5]; within a period of several minutes) |
| --- | --- | --- | --- | --- | --- | --- | --- | --- | --- | --- | --- | --- | --- | --- |
| O=C1NC(CCl)C(c2ccccc2)O1 (stereo not shown) [Example 72] | > 1000 mg/kg | 75 mg/kg | 540 mg/kg | > 1000 mg/kg | – | – | – | – | – | – | – | – | – | – |
| CCCC(O)(CCC)C1COC(=O)N1 (stereo not shown) [Example 45] | > 1000 mg/kg | – | – | – | 210 mg/kg | 120 mg/kg | 430 mg/kg | 1000 mg/kg | – | – | – | – | – | – |
| CC(O)(c1ccc(Cl)cc1)C1COC(=O)N1 (stereo not shown) [Example 59] | > 1000 mg/kg | – | – | – | 110 mg/kg | 165 mg/kg | > 464 mg/kg | > 1000 mg/kg | – | – | – | – | – | – |
| CC(O)C1NC(=O)OC1c1ccccc1 (stereo not shown) [Example 5, 4-[1-(1-Hydroxyethyl)]-5-phenyl oxazolidin-2-one] | > 1000 mg/kg | – | – | – | 510 mg/kg | 75 mg/kg | 150 mg/kg | > 1000 mg/kg | superior | – | – | – | – | – |
| CCC(O)(c1ccccc1)C1NC(=O)OC1C (stereo not shown) [Example 18, 4-[-1-(1-Hydroxy-1-phenyl)-propyl]-5-methyl oxazolidin-2-one] | > 1000 mg/kg | – | – | – | 450 mg/kg | 200 mg/kg | 200 mg/kg | > 1000 mg/kg | – | – | – | – | – | – |
| C=CCC(O)(CC=C)C1NC(=O)OC1C (stereo not shown) [Example 34] | > 1000 mg/kg | – | – | – | 90 mg/kg | 150 mg/kg | > 464 mg/kg | 1000 mg/kg | – | – | – | – | – | – |
| CCCC(O)(CCC)C1NC(=O)OC1c1ccccc1 (stereo not shown) [Example 41] | > 1000 mg/kg | – | – | – | 65 mg/kg | 147 mg/kg | > 464 mg/kg | > 1000 mg/kg | – | – | – | – | – | – |
| CN1C(=O)OC(C)(C)C1=O [Trimethadione, reference compound] | > 1000 mg/kg | – | – | – | 660 mg/kg | 450 mg/kg | 240 mg/kg | > 1000 mg/kg | – | – | – | – | – | – |
| CCCC(CCC)C(=O)O [Dipropylacetate, reference compound] | > 1000 mg/kg | 185 mg/kg | 450 mg/kg | 1000 mg/kg | – | – | – | – | – | – | – | – | – | – |
| CCC(O)(c1ccccc1)C1COC(=O)N1C (stereo not shown) [Example 64] | 800 mg/kg | – | – | – | 110 mg/kg | 300 mg/kg | > 464 mg/kg | 650 mg/kg | – | distinctly more effective | distinctly more effective | – | – | – |
| CC(C)(O)C1NC(=O)OC1c1ccccc1 (stereo not shown) [Example 37] | > 1000 mg/kg | – | – | – | 650 mg/kg | 59 mg/kg | 130 mg/kg | 1000 mg/kg | superior | – | – | – | – | – |
| C=CCC(O)(c1ccccc1)C1COC(=O)N1 (stereo not shown) [Example 58] | > 1000 mg/kg | – | – | – | 300 mg/kg | 200 mg/kg | 300 mg/kg | 1000 mg/kg | – | – | – | – | – | – |
| CN1C(=O)OC(c2ccccc2)C1C(C)(C)O (stereo not shown) [Example 38] | > 1000 mg/kg | – | – | – | 115 mg/kg | 165 mg/kg | 640 mg/kg | 464 mg/kg | – | distinctly more effective | distinctly more effective | – | – | – |
| CCCC(C)(COC(N)=O)COC(N)=O [Meprobamate, reference compound] | 1000 mg/kg | 115 mg/kg | 150 mg/kg | 800 mg/kg | – | – | – | – | – | – | – | – | – | – |
| CCC(O)(c1ccccc1)C1COC(=O)N1 (stereo not shown) [Example 54] | > 1000 mg/kg | – | – | – | 50 mg/kg | 115 mg/kg | 85 mg/kg | 800 mg/kg | superior | distinctly more effective | distinctly more effective | – | – | – |
| CC1(CO)NC(=O)OC1(C)c1ccccc1 (stereo not shown) [Example 6] | > 100 mg/kg | – | – | – | 1000 mg/kg | 165 mg/kg | > 464 mg/kg | 1000 mg/kg | – | – | – | – | – | – |
| O=C1NC(C(O)(c2ccccc2)c2cccc(Cl)c2)CO1 (stereo not shown) [Example 49] | > 1000 mg/kg | – | – | – | 90 mg/kg | 200 mg/kg | > 464 mg/kg | > 1000 mg/kg | – | – | – | – | – | – |
| O=C1NC(CBr)C(c2ccccc2)O1 (stereo not shown) [Example 73] | > 1000 mg/kg | 65 mg/kg | 430 mg/kg | > 1000 mg/kg | – | – | – | – | – | – | – | – | – | – |
| O=C1NC(C(O)c2ccc(Cl)cc2)CO1 (stereo not drawn) [Example 4, 4-(α-Hydroxy-p-chlorobenzyl)-oxazolidin-2-one] | > 1000 mg/kg | – | – | – | 160 mg/kg | 125 mg/kg | 140 mg/kg | > 1000 mg/kg | superior | – | – | – | – | – |
| CCCC(O)(c1ccccc1)C1COC(=O)N1 (stereo not shown) [Example 65] | > 1000 mg/kg | – | – | – | 155 mg/kg | 170 mg/kg | 175 mg/kg | > 1000 mg/kg | – | – | – | – | – | – |
| CC1(c2ccccc2)OC(=O)NC1CCl (stereo not shown) [Example 67, 4-Chloromethyl-5-methyl-5-phenyl oxazolidin-2-one] | > 1000 mg/kg | 93 mg/kg | 55 mg/kg | 1000 mg/kg | – | – | – | – | superior | – | – | – | – | – |
| C=CCN1C(=O)OC(c2ccccc2)C1C(C)(C)O (stereo not shown) [Example 39] | 1000 mg/kg | – | – | – | 130 mg/kg | 145 mg/kg | > 464 mg/kg | > 1000 mg/kg | – | – | – | – | – | – |
| CCC(O)(c1ccc(Cl)cc1)C1COC(=O)N1 (stereo not shown) [Example 60] | > 1000 mg/kg | – | – | – | 70 mg/kg | 175 mg/kg | > 464 mg/kg | 1000 mg/kg | – | – | – | – | – | – |
| CCC(O)(CC)C1NC(=O)OC1c1ccccc1 (stereo not shown) [Example 40] | > 1000 mg/kg | – | – | – | 165 mg/kg | 75 mg/kg | 430 mg/kg | 1000 mg/kg | – | – | – | – | – | – |
| O=C1NC(=O)C(c2ccccc2)(c2ccccc2)N1 [Diphenylhydantoin, reference compound] | – | – | – | – | 50 mg/kg | 10 mg/kg | – | – | – | – | – | – | – | – |
| CCC1(c2ccccc2)C(=O)NC(=O)NC1=O [Na-phenocarbital, reference compound] | 320 mg/kg | 11 mg/kg | 30 mg/kg | 150 mg/kg | – | – | – | – | – | – | – | – | – | – |
| C=CCC(O)(CC=C)C1NC(=O)OC1c1ccccc1 (stereo not shown) [Example 43] | 1000 mg/kg | – | – | – | 15 mg/kg | 25 mg/kg | > 464 mg/kg | 225 mg/kg | – | distinctly more effective | distinctly more effective | characteristic signs of a sedation with a decrease of effectiveness in the alpha and beta band and a change of the range of main activity to the lower frequency range | clearly increased | muscle relaxing, tiring and ataraktic sedation |
